# Measured values published in PubChem BioAssay (NCI).
#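 Briefly, cells in 96-well plates were exposed to five compound concentrations for 48 h, and endpoints were estimated by linear interpolation. Abbreviation: GI50, concentration required for 50% inhibition of growth. TGI is the concentration that stops growth completely.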
# Columns and labels:
# Test in all cases: inhibition of tumour cell growth, NCI panel, 48 h
# [1] = test system: NCI-H226 lung
# [2] = test system: HOP-62 NSCLC
# [3] = test system: SK-MEL-2 melanoma
# [4] = test system: HS 578T breast
# [5] = test system: CAKI-1 renal
# [6] = test system: TK-10 renal
# [7] = test system: T-47D breast
# [8] = test system: LOX IMVI melanoma
# [9] = test system: KM12 colon
# [10] = test system: SK-OV-3 ovarian
# [11] = test system: DU-145 prostate
# [12] = test system: A549 NSCLC
# [13] = test system: OVCAR-3 ovarian
# [14] = test system: SW-620 colon
# [15] = test system: ACHN renal
# [16] = test system: U251 CNS
# [17] = test system: UACC-62 melanoma
# [18] = test system: COLO 205 colon
# [19] = test system: NCI-H522 lung
# [20] = test system: RPMI-8226 leukemia
# [21] = test system: NCI/ADR-RES ovarian
# [22] = test system: EKVX NSCLC
# [23] = test system: SN12C renal
# [24] = test system: SF-268 CNS
# [25] = test system: MOLT-4 leukemia
# [26] = test system: UO-31 renal
# [27] = test system: 786-0 renal
# [28] = test system: OVCAR-4 ovarian
smiles,measurement,setting,value
Cc1ccc(N(CC(=O)Nc2ccc(S(=O)(=O)NC3CCN(C)CC3)cc2)S(=O)(=O)c2ccc(Cl)cc2)cc1,GI50,[1],5.37 µM
same,TGI,[1],23.4 µM
same,GI50,[2],3.96 µM
same,TGI,[2],14.2 µM
same,GI50,[3],2.15 µM
same,TGI,[3],4.86 µM
same,GI50,[4],2.27 µM
same,TGI,[4],6.74 µM
same,GI50,[5],14.7 µM
same,TGI,[5],28.4 µM
same,GI50,[6],13.7 µM
same,TGI,[6],27 µM
same,GI50,[7],2.03 µM
same,TGI,[7],4.47 µM
same,GI50,[8],1.89 µM
same,TGI,[8],3.76 µM
same,GI50,[9],2.85 µM
same,TGI,[9],8.25 µM
same,GI50,[10],5.45 µM
same,TGI,[10],17.8 µM
same,GI50,[11],3.27 µM
same,TGI,[11],11.2 µM
same,GI50,[12],5 µM
same,TGI,[12],16.3 µM
same,GI50,[13],2.99 µM
same,TGI,[13],8.77 µM
same,GI50,[14],1.84 µM
same,TGI,[14],3.61 µM
same,GI50,[15],12 µM
same,TGI,[15],27.6 µM
same,GI50,[16],2.35 µM
same,TGI,[16],5.83 µM
same,GI50,[17],1.74 µM
same,TGI,[17],3.59 µM
same,GI50,[18],1.89 µM
same,TGI,[18],3.89 µM
same,GI50,[19],2.24 µM
same,TGI,[19],4.62 µM
same,GI50,[20],2.71 µM
same,TGI,[20],7.89 µM
same,GI50,[21],16.8 µM
same,TGI,[21],35.5 µM
same,GI50,[22],5.09 µM
same,TGI,[22],19.8 µM
same,GI50,[23],3.05 µM
same,TGI,[23],13.1 µM
same,GI50,[24],2.67 µM
same,TGI,[24],8.26 µM
same,GI50,[25],2.97 µM
same,TGI,[25],10.1 µM
same,GI50,[26],14.7 µM
same,TGI,[26],30.3 µM
same,GI50,[27],2.08 µM
same,TGI,[27],5.23 µM
same,GI50,[28],5.13 µM
same,TGI,[28],19.7 µM
